This is an account of results in patent US10745408B2, “Biologically active taxane analogs and methods of treatment by oral administration” (Tapestry Pharmaceuticals, Inc., priority 2007, dated 2020).

Entries after “also recorded” stand apart in the source; their conditions may differ. Read-outs that look alike come from different tables or passages of the source.

One data set concerns SKNAS. Nature of the data set: MTS proliferation assay, neuroblastoma SKNAS. To be noted: Homo sapiens, SK-N-AS. The format is cell-based. The method, then:
(§1) MTS Proliferation Assay (Promega)
(§2) Day 1: Cells were plated in appropriate growth medium at 5×10^3 per well in 100 ul in 96 well tissue culture plates, Falcon, one for each drug to be tested. Col 1 was blank; it contained no cells, just medium. The plates were incubated overnight at 37° C., 5% CO2 to allow attachment.
(§3) Day 2: Added 120 ul growth medium in wells of 96-well “dilution plates” (one for each drug) and let sit in 37° C. incubator for about 1 hr.
(§4) Thawed DMSO drug stocks (usually at 10 mM). Each drug was diluted 6 ul into a tube with 3 ml growth medium, to 20 μM.
(§5) Aspirated medium from col 12 of a dilution plate; added 200-300 ul of 20 uM drug to wells of col 12. Made serial dilution down this 96-well plate: for a […] dilution pattern, moved 60 ul from col 12 to col 11, mixed 4-5 times (using 8 place multi-pipettor), moved 60 ul to col 10, etc. stopping at col 3.
(§6) Moved 100 ul of medium+drug from dilution plate to a cell plate, i.e. col 1 from drug plate (blank=no cells) to col 1 of cell plate, etc. up to col 12. Col 2 contained cells with no drug. […]
(§7) Day 4 or 5: Terminated the assay 48 to 72 hrs after drug addition. […] When the color turned dark in control wells (col 2), and was still light in col 12, the absorbance at 490 nm was read on a plate reader; the results were used to calculate IC50.

The subject of another data set is KBV (MDR+). Nature of the data set: MTS proliferation assay, head/neck KBV (MDR+). The format is cell-based. The method, then: as §1, §2, §3, §4, §5, §6, §7
Data set [1] deals with U251 human CNS tumor cells (glioblastoma). Conditions: for survivors day 100: QD1, 5, 9; for median day of death and median survival time: intravenous, q4d×3. From the text: Tumor Model: Each animal was implanted with one million U251 human CNS tumor cells from an in vitro cell line by ic injection with a 25 gauge needle. The day of tumor implantation (May 24, 2006) was designated as day 0. A sufficient number of mice were implanted so that animals with body weights in a range as narrow as possible were selected for the trial on the day of treatment initiation (day 1 after tumor implantation). Animals were randomly assigned to the treatment groups and individually identified by earmark codes.
A portion of this solution was then diluted with the complete vehicle to achieve the lower dosing concentration of 1.2 mg/mL. […] Temozolomide (Temodar, Schering Corporation) was prepared on each day of injection in Klucel+tween 80 at a concentration of 4 mg/mL. Temozolomide was administered within 5 minutes of formulation on the basis of exact body weight using a volume of 0.2 mL/10 g of body weight.
Data Collection: Animal health surveillance was conducted and mortality data were collected daily. The animals were weighed twice weekly starting with the first day of treatment.
Study Duration: The study was terminated 100 days after tumor implantation. Any animal found moribund or whose body weight dropped below 14 g was euthanized prior to study termination.
Parameters Evaluated: Number of 100-day survivors, median day of death, and the increase in lifespan based on median day of death and expressed as a percentage (% ILS), median survival time and the % ILS based on median survival time.

The test system of data set [2] is patients with advanced neoplasms. Nature of the data set: Phase 1 Study S-(1)-01 safety, tolerability and anti-neoplastic activity. It is filed as in vivo, human. From the text:
Both trials have enrolled patients with advanced solid tumors, non-Hodgkin's lymphoma or Hodgkin's lymphoma that have recurred or progressed following at least standard therapy; patients with malignancies for which there is no standard therapy; patients who are not candidates for standard therapy; or patients who have chosen not to pursue standard therapy. […] Study S-(1)-01 is currently being conducted in the United States. […] Study S-(1)-02 is currently being conducted in the United States and in Israel.
Treatment cohorts consisted of 3 pts and were expanded to 6 pts in the face of dose-limiting toxicity (DLT); pts could remain on study until the development of progressive disease or an intolerable adverse event. DLT was defined as Gr 4 heme toxicity lasting 7 days; febrile neutropenia, Gr 3 thrombocytopenia with bleeding, Gr 3 elevation of transaminases lasting 7 days or any other Gr 3/4 toxicity other than nausea or vomiting.

For the next data set, the system named is MESSA. Nature of the data set: MTS proliferation assay, uterine MESSA. Conditions: Homo sapiens, MES-SA. The format is cell-based. The method, then: as §1, §2, §3, §4, §5, §6, §7
(Formazan colour is commonly taken as a measure of viable cells.)

For the next data set, the system named is KB. Nature of the data set: MTS proliferation assay, head/neck KB. The format is cell-based. Conditions: Homo sapiens. The method, then:
as §1, §2, §3, §4, §5, §6, §7

Data set [3] relates to bovine microtubule protein. Nature of the data set: In vitro ED50 MT polymerization study (DAPI fluorescence tubulin assay). The format is biochemical. To be noted: tubulin polymerization, 37° C. 30 minutes, maximum assembly = 25 μM paclitaxel. The method, then: In Vitro ED50 MT Polymerization Study
In this tubulin binding assay, microtubule protein (MTP) is used as a substrate. The assay contains bovine tubulin plus microtubule associated proteins (MAP). MTP is polymerized into microtubules in the presence of DAPI (4′,6′-diamidino-2-phenylindole), a fluorescent compound. DAPI binds to tubulin; when microtubules are formed and there is an enhancement of fluorescence. The microtubule formation is measured as a function of time, using a fluorescence plate reader. […] The method used is based on the procedure published by Donna M. Barron, et al, “Fluorescence-based high-throughput assay for antimicrotuble drugs” Analytical Biochemistry, 315: 49-56, 2003, which is incorporated by reference in its entirety. The excitation wavelength, in that assay, was set at 370 nm and the emission wavelength was set at 450 nm for the DAPI experiments.
A Bio-Tek FL 600 microplate Fluorescence Reader was used to measure the relative level of fluorescence in the DAPI assay.
Assays were conducted in 96-well plates. Each well contained a total volume of 0.1 mL consisting of PEM buffer (0.1 M Pipes, 1 mM EGTA, 1 mM MgCl2, pH 6.9), 0.2 mg bovine microtubule protein, and 10 μg of DAPI. […] The final DMSO concentration was 4%. The plates were incubated at 37° C. for 30 minutes and read in a fluorescence plate reader using an excitation wavelength of 360 nm and an emission wavelength of 460 nm. Fluorescence values were corrected for the sample without compound.
Experiments were done twice in triplicate. Results were subsequently combined and fit to a non-linear regression program.

Another data set concerns HT29. Nature of the data set: MTS proliferation assay, colon HT29. To be noted: Homo sapiens, HT-29. The format is cell-based. The method, then: as §1, §2, §3, §4, §5, §6, §7
In the next data set the test system is human tumor xenografts. Nature of the data set: Human tumor xenografts in nude mice (efficacy and MTD studies). The format is in vivo. Background: Xenograft models place foreign cells or tissue in a host animal.
Assay in data set [4]: as above
It is filed as in vivo. To be noted: mouse, in vivo, po; nude mice, from efficacy and MTD studies; read-out: apparent oral bioavailability.

As for `C=C[C@H]1O[C@H]2C[C@H]3OC[C@@]3(OC(C)=O)[C@H]3[C@H](OC(=O)c4ccccc4)[C@]4(C(C)(C)O)CC(OC(=O)[C@H](O)C(CC(C)C)NC(=O)OC(C)(C)C)C(C)=C4[C@H](OC(C)=O)[C@H](O1)[C@]23C` (stereo partly drawn) [S-(1)], the IC50 in the data set on SKNAS was 11 nM; in the data set on KBV (MDR+), 553 nM; in the data set on MESSA it was 2.9 nM; with KB it was 9.4 nM; in the data set with HT29, 0.006 nM. Besides, the “survivors day 100” value in data set [1] (S-(1) 12 mg/kg) and in data set [1] (S-(1) 20 mg/kg) was 100 = 0) each time. The “median day of death and median survival time” value is 14.5 days in data set [1] (S-(1) 12 mg/kg/dose) and 16 days in data set [1] (S-(1) 20 mg/kg/dose). Also, the “effect against the U251 human CNS tumor cells (in words)” value in data set [1] (monotherapy or combination as dosed in the study) is recorded as “moderate effect”. Further, the Dose limiting toxicity entry in data set [2] (185 mg/m^2, weekly x3, 28-day cycle) is listed as “Grade 3 sensory neuropathy; also recorded: Grade 3 peripheral neuropathy”. Besides, the “Drug related adverse events” value in data set [2] (7-185 mg/m^2 weekly x3) was “nausea, vomiting, diarrhea, fatigue, anorexia, rash, anemia and peripheral neuropathy”. The anti-neoplastic activity result in data set [2] (patient with pancreatic cancer) is listed as “Anti-neoplastic activity was seen”. Moreover, the “dose that can be safely administered” value in data set [2] (weekly×3, heavily pre-treated patients) is listed as “up to 185 mg/m^2”. Further, the EC50 in data set [3] came out at 1580 ± 460 nM. In addition, the “efficacy in mouse xenografts” value in the data set on human tumor xenografts (dosed either oral or iv) is reported as “shows efficacy”. The “antitumor activity against multiple human tumor xenografts” value with human tumor xenografts (including xenografts that expressed mdr-1 and were resistant to other taxanes) is “demonstrated antitumor activity; also recorded: suppressed the growth”. Further, the bioavailability in data set [4] is 40 to 80%.

One may read the IC50 as the concentration at which inhibition is half-maximal. A high value points to weaker potency in that assay. Usually EC50 stands for the concentration giving half of the maximal effect. Lower therefore signals higher potency in that assay. In general, bioavailability refers to the share of a dose that reaches the circulation, judged against a reference dose that is usually intravenous.
